Results from the NIST ThermoML archive (doi:10.1016/j.tca.2016.05.013).
Numbers after ± are expanded uncertainties.

Tests used:
[1] = refractive index (Na D-line) (dimensionless); settings: 86.8 kPa, Liquid, Standard Abbe refractometry
[2] = 86.8 kPa, Liquid; for speed of sound: Frequency=3 MHz, Sing-around technique in a fixed-path interferometer; for mass density: Vibrating tube method
[3] = refractive index (Na D-line) (dimensionless); mn = molality of the nth substance listed, in mol/kg; settings: 86.8 kPa, Liquid, Standard Abbe refractometry, m2 = 0

refractive index ([1]; 288.15 K)	refractive index ([1]; 298.15 K)	refractive index ([1]; 308.15 K)	refractive index ([1]; 318.15 K)	speed of sound ([2]; 288.15 K) [m/s]	mass density ([2]; 288.15 K) [kg/m3]	speed of sound ([2]; 298.15 K) [m/s]	mass density ([2]; 298.15 K) [kg/m3]	speed of sound ([2]; 308.15 K) [m/s]	mass density ([2]; 308.15 K) [kg/m3]	speed of sound ([2]; 318.15 K) [m/s]	mass density ([2]; 318.15 K) [kg/m3]	refractive index ([3]; 288.15 K)	refractive index ([3]; 298.15 K)	refractive index ([3]; 308.15 K)	refractive index ([3]; 318.15 K)	Structure (SMILES)
1.6503 ± 0.004	1.647 ± 0.004	1.6442 ± 0.004	1.6413 ± 0.004	1721.6 ± 2.4	1155.72 ± 1.6	1679.2 ± 2.4	1148.81 ± 1.6	1640.9 ± 2.4	1142.02 ± 1.6	1606.1 ± 2.4	1135.41 ± 1.6					CCCCn1cc[n+](C)c1.O=C([O-])c1ccccc1O [1-butyl-3-methylimidazolium salicylate]
												1.3329 ± 0.004	1.3323 ± 0.004	1.3316 ± 0.004	1.3305 ± 0.004	O [water] + CCCCn1cc[n+](C)c1.O=C([O-])c1ccccc1O
